Measurements reported in ChEMBL document CHEMBL4190183 (Medchemcomm, 2016).
In brackets after ≈: the same amount, converted by molar mass. Activity calls are given as the source filed them. The calls are words filed in the database; no cut-off is given here.

What was measured:
[1] = test system: HepG2; experiment: Antimetastatic activity against human HepG2 cells assessed as wound healing at 20 uM after 18 hrs by microscopic method (reference value: 32%); format: functional
[2] = species: Mesocricetus auratus; experiment: Half life in hamster liver microsomes at 1 uM by LC-MS/MS analysis; settings: golden Syrian hamster
[3] = test system: HepG2; experiment: Induction of DNA damage in human HepG2 cells assessed as increase in gamma-H2AX expression levels at 10 to 20 uM after 48 hrs by Western blot analysis; format: functional, cell-based
[4] = test system: HepG2; experiment: Cytotoxicity against human HepG2 cells assessed as decrease in cell viability after 48 hrs by MTT assay; format: functional, cell-based
[5] = target: T1, DNA ligase 1 (Homo sapiens, UniProt P18858); experiment: Binding affinity to human N-terminal His-tagged DNA ligase 1 DBD expressed in Escherichia coli BL21(DE3)RP cells at 10 uM by fluorescence spectroscopic analysis
[6] = target: T1, DNA ligase 1; experiment: Binding affinity to human full length N-terminal His-tagged DNA ligase 1 expressed in Escherichia coli BL21(DE3)RP cells at 10 uM by fluorescence spectroscopic analysis
[7] = Retention time of the compound by LC-MS/MS analysis; format: physicochemical
[8] = test system: A549; experiment: Cytotoxicity against human A549 cells assessed as cell death at 10 uM after 48 hrs by MTT assay relative to control; format: functional
[9] = test system: DLD-1; experiment: Cytotoxicity against human DLD1 cells assessed as cell death at 10 uM after 48 hrs by MTT assay relative to control; format: functional
[10] = target: T1, DNA ligase 1; experiment: Inhibition of human DNA ligase 1 expressed in Escherichia coli BL21(DE3)RP cells assessed as reduction in nick sealing activity using fluorescently labelled ds nicked DNA as substrate after 30 mins by urea gel based imaging method
[11] = test system: HepG2; experiment: Induction of cell death in human HepG2 cells at 5 uM after 48 hrs by MTT assay; format: functional, cell-based
[12] = target: T1, DNA ligase 1; experiment: Binding affinity to human full length N-terminal His-tagged DNA ligase 1 expressed in Escherichia coli BL21(DE3)RP cells assessed as destabilization of enzyme-nicked oligo DNA complex after 2 hrs by electrophoretic mobility shift assay
[13] = test system: HepG2; experiment: Anticlonogenic activity against human HepG2 cells at >= 10 uM incubated for 48 hrs measured after 10 days by crystal violet staining based microscopy; format: functional, cell-based
[14] = species: Mesocricetus auratus; experiment: Metabolic stability in hamster liver microsomes assessed as parent compound remaining at 1 uM after 60 mins in presence of NADPH by LC-MS/MS analysis; settings: golden Syrian hamster
[15] = test system: HepG2; experiment: Cytotoxicity against human HepG2 cells assessed as cell death at 10 uM after 48 hrs by MTT assay relative to control; format: functional
[16] = test system: HepG2; experiment: Antimetastatic activity against human HepG2 cells assessed as wound healing at 10 uM after 18 hrs by microscopic method (reference value: 32%); format: functional
[17] = test system: HepG2; experiment: Induction of apoptosis in human HepG2 cells after 48 hrs by Annexin-V/PI staining based flow cytometry; format: functional, cell-based
[18] = target: T1, DNA ligase 1; experiment: Binding affinity to human full length N-terminal His-tagged DNA ligase 1 expressed in Escherichia coli BL21(DE3)RP cells at 1.25 to 5 uM by CD spectroscopic method
[19] = target: T1, DNA ligase 1; experiment: Binding affinity to human N-terminal His-tagged DNA ligase 1 DBD expressed in Escherichia coli BL21(DE3)RP cells at 1.25 to 5 uM by CD spectroscopic method
[20] = Stability of the compound in simulated intestinal fluid at 5 uM at pH 6.8 measured up to 120 mins by LC-MS/MS analysis; format: ADME; settings: simulated gi fluid, pH 6.8, 2 h
[21] = test system: HepG2; experiment: Antimetastatic activity against human HepG2 cells assessed as wound healing at 20 uM after 12 hrs by microscopic method (reference value: 21%); format: functional
[22] = Aqueous solubility of the compound in triple distilled water at 1 to 1000 uM after 2 hrs by nephelometric method; format: physicochemical
[23] = test system: DNA; experiment: Induction of linearized Escherichia coli pUC18 DNA intercalation up to 600 uM after 30 mins by agarose gel electrophoresis method; format: nucleic-acid assay
[24] = species: Mesocricetus auratus; experiment: Intrinsic clearance in hamster liver microsomes at 1 uM by LC-MS/MS analysis; settings: golden Syrian hamster
[25] = target: T1, DNA ligase 1; experiment: Inhibition of human DNA ligase 1 expressed in Escherichia coli BL21(DE3)RP cells assessed as reduction in fluorescently labelled ds nicked DNA substrate ligation at 100 uM after 30 mins by urea gel based imaging method relative to control
[26] = test system: HepG2; experiment: Synergistic cytotoxicity against human HepG2 cells assessed as induction of cell death at 5 uM after 48 hrs in presence of 0.625 uM doxorubicin by MTT assay; format: functional, cell-based
[27] = test system: HepG2; experiment: Antiproliferative activity against human HepG2 cells assessed as decrease in PCNA expression level at 10 to 20 uM after 48 hrs by Western blot analysis; format: functional, cell-based
[28] = test system: DNA; experiment: Inhibition of EtBr binding to Escherichia coli pUC18 DNA up to 400 uM after 30 mins by fluorescence spectroscopic analysis; format: nucleic-acid assay
[29] = Stability of the compound in simulated gastric fluid at 5 uM at pH 1.2 measured up to 60 mins by LC-MS/MS analysis; format: ADME; settings: simulated gi fluid, pH 1.2, 1 h
[30] = test system: HEK293; experiment: Cytotoxicity against HEK293 cells assessed as cell death at 10 uM after 48 hrs by MTT assay relative to control; format: cell-based; settings: human, hek293, 48 h
[31] = test system: HepG2; experiment: Cell cycle arrest in human HepG2 cells assessed as accumulation at G0/G1 phase at 20 uM after 24 hrs by propidium iodide staining based flow cytometry (reference value: 56.8 +/- 1.16%); format: functional
[32] = test system: MDA-MB-231; experiment: Cytotoxicity against human MDA-MB-231 cells assessed as cell death at 10 uM after 48 hrs by MTT assay relative to control; format: functional
[33] = target: T1, DNA ligase 1; experiment: Residual activity of human DNA ligase 1 expressed in Escherichia coli BL21(DE3)RP cells assessed as DNA ligation at 100 uM using fluorescently labelled ds nicked DNA as substrate after 30 mins by urea gel based imaging method relative to control
[34] = test system: HCT-116; experiment: Cytotoxicity against human HCT116 cells assessed as cell death at 10 uM after 48 hrs by MTT assay relative to control; format: functional
[35] = test system: HepG2; experiment: Cell cycle arrest in human HepG2 cells assessed as accumulation at G0/G1 phase at 10 uM after 12 hrs by propidium iodide staining based flow cytometry (reference value: 42.7 +/- 1.5%); format: functional
[36] = test system: HepG2; experiment: Cell cycle arrest in human HepG2 cells assessed as accumulation at G0/G1 phase at 10 uM after 24 hrs by propidium iodide staining based flow cytometry (reference value: 56.8 +/- 1.16%); format: functional
[37] = Protein binding in hamster plasma at 10 uM at pH 7.4 incubated for 30 mins measured after 10 hrs by LC-MS/MS based equilibrium dialysis method; format: ADME, cell-free, Cricetulus griseus; settings: chinese hamster, read-out: PPB
[38] = test system: HepG2; experiment: Induction of apoptosis in human HepG2 cells assessed as increase in p53 expression levels at 10 to 20 uM after 48 hrs by Western blot analysis; format: functional, cell-based
[39] = test system: HepG2; experiment: Antimetastatic activity against human HepG2 cells assessed as wound healing at 10 uM after 12 hrs by microscopic method (reference value: 21%); format: functional
[40] = test system: HepG2; experiment: Cell cycle arrest in human HepG2 cells assessed as accumulation at G0/G1 phase at 20 uM after 12 hrs by propidium iodide staining based flow cytometry (reference value: 42.7 +/- 1.5%); format: functional

T1 sequence (P18858 whole entry): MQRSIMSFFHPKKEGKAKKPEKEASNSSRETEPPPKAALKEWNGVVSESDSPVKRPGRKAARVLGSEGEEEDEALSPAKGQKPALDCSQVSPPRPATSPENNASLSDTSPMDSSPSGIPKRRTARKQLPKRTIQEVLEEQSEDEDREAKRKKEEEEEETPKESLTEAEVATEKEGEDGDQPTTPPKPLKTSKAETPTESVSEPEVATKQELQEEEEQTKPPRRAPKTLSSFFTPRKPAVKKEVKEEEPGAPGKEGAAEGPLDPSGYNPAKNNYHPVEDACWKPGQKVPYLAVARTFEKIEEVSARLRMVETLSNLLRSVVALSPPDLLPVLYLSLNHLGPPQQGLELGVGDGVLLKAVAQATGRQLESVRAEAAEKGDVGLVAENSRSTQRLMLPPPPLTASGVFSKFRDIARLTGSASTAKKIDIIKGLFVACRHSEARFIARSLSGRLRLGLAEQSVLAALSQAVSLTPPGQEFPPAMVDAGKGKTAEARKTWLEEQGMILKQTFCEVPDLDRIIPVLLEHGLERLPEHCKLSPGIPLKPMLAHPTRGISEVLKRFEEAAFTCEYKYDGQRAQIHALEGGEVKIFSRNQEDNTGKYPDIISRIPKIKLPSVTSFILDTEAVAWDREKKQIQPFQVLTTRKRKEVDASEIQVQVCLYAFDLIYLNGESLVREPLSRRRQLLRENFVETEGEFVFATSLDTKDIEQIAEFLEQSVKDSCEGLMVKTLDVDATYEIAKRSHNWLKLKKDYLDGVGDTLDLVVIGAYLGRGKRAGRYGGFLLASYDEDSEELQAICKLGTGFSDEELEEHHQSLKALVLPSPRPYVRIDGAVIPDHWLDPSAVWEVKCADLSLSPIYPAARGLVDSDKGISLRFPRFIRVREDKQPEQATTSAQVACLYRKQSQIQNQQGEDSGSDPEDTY

CCOC(=O)C1=C(C)NC(=O)NC1c1cc(/C=N/NC(=O)Nc2cccc(OC)c2)c(O)c(C(C)(C)C)c1 (configuration not stated)
Activity [1]: 5.5%
half-life at 1 µM [2]: 20.8 min
Activity [3]: Active
Activity [4]: Dose-dependent effect
IC50 ([4]; HepG2, 48 h): 10.6 µM
Activity [5]: Active
Activity [6]: Active
Retention_time [7]: 2.98 min
Activity [8]: 18.1%
Activity [9]: 29.4%
IC50 [10]: 12.4 µM
inhibition [10]: Dose-dependent effect
Activity [11]: Active
Activity [12]: Dose-dependent effect
Activity [13]: Active
remaining at 1 h, 1 µM [14]: 12.9%
Activity [15]: 52.2%
Activity [16]: 16.4%
Activity [17]: Dose-dependent effect
Activity [18]: Active
Activity [19]: Active
Stability [20]: Stable
Activity [21]: 7.5%
solubility kinetic at 2 h [22]: 30 µM (≈ 15.7 µg/mL)
Activity [23]: inactive
CLH [24]: 33.29 µL/min/mg
inhibition [25]: 82.7%
Activity [26]: Active
Activity [27]: Active
inhibition [28]: inactive
Stability [29]: Stable
Activity [30]: 11.7%
Activity [31]: 84.8%
Activity [32]: 28.4%
ligation [33]: 17.4%
Activity [34]: 18.2%
Activity [35]: 59.1%
Activity [36]: 68.1%
fraction unbound at 10 h, 10 µM [37]: 0.0098
Activity [38]: Active
Activity [39]: 11.2%
Activity [40]: 64%
